Patent publication US12274681B2, “Compositions and methods for reducing skin fat” (Purdue Research Foundation, priority 2016, dated 2025)

Assays:
[1] = test system: murine 3T3-L1 preadipocytes; assay: Lipid accumulation in differentiating adipocytes, Oil Red O staining and spectrometric quantification; format: cell-based
Method: Avasimibe solution was prepared by dissolving in dimethyl sulfoxide (DMSO). At day 6, preadipocytes and avasimibe-treated differentiated adipocytes were subjected to Oil Red 0 staining to visualize accumulated intracellular lipids. Oil Red 0 stained lipids were then extracted for spectrometric quantification of lipids. Intracellular lipids were decreased in a dose-dependent manner by up to 60% (FIG. 3A and FIG. 3B).

[2] = test system: high fat diet-fed C57BL/6J obese and diabetic mice; assay: High fat diet-induced obese and diabetic mouse model; format: in vivo; conditions: for anti-diabetes treatment / anti-obesity treatment in a mouse model of obesity: summary statement
ACAT2 [3] = biological target: ACAT2 (Homo sapiens, UniProt O75908); conditions: cited from earlier work
Sequence of ACAT2 (Homo sapiens, UniProt O75908) (O75908 whole entry): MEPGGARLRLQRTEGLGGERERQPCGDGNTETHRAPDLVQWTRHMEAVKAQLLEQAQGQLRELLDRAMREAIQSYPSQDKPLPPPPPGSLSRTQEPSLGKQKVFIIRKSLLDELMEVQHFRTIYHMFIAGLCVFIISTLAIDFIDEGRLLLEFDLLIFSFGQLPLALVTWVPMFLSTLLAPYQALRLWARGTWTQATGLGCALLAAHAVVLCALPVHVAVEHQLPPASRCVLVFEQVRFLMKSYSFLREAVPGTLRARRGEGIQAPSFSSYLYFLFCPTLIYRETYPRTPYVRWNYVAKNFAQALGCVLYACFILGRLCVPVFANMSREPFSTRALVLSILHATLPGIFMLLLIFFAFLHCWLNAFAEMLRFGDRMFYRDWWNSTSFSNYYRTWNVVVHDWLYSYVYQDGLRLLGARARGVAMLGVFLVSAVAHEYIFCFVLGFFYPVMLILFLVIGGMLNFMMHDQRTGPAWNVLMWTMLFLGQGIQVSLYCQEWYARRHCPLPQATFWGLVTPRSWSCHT

mature adipocytes = assay: Lipid accumulation by Coherent Anti-Stokes Raman Scattering (CARS) microscopy; format: cell-based, murine
[4] = test system: differentiated 3T3-L1 preadipocytes; assay: Real-time PCR of lipid synthesis and cholesterol uptake genes in adipocytes; format: cell-based, murine
Method: To characterize the effect of avasimibe treatment on mRNA levels of genes involved in lipid metabolism and adipocyte function, differentiated 3T3-L1 preadipocytes in the presence or absence of avasimibe (20 μM) for 6 days were subjected to real-time PCR assay for the analysis of expression of genes involved in synthesis of fatty acids and TGs such as PPARγ, sterol regulatory element binding protein 1c (SREBP1c), MGAT1, DGAT2, FAS and SCD-1.
(§1) Previous studies reported an adipogenesis-dependent increase in cholesterol accumulation in adipocytes. Similarly, adipogenesis was associated with elevated level free cholesterol with little change in CE level.

SREBP1 = assay: Western blot of SREBP1 in adipocytes; format: cell-based
Method: Because SREBP1 plays a key role in de novo fatty acids and TG synthesis and the data in FIG. 6 show a potential inhibitory role of avasimibe in suppression of SREBP1-downstream genes involved in fatty acid and TG synthesis, the ability of avasimibe treatment to alter SREBP1 protein expression and de novo fatty acid synthesis in adipocytes was tested.

adipocytes [5] = assay: De novo fatty acid synthesis, glucose-d7 with stimulated Raman scattering (SRS) microscopy; format: cell-based; conditions: SRS imaging
Source text: Using deuterium labeled glucose-d7, the effect of avasimibe on de novo fatty acid synthesis in adipocytes treated with or without avasimibe was examined. Glucose-d7 incorporated fatty acids were visualized by stimulated Raman scattering (SRS) microscopy.

adipocytes [6] = assay: Cholesterol and cholesterol ester accumulation in adipocytes during adipogenesis; format: cell-based
Source text: as §1

ACAT = assay: 25-NBD cholesterol-based ACAT assay in adipocytes; format: cell-based
Source text: as §1

[7] = mouse, in vivo, ip, 20 mg/kg
Source text: Tissue- and isoform-specific regulation of ACATs has been proposed to be therapeutic strategy for cholesterol dysregulated diseases, such as atherosclerosis. However, the therapeutic role of ACATs in obesity has never been explored.

[8] = test system: high-fat diet-induced obesity mouse model; assay: Pair-feeding study in high-fat diet-induced obesity mouse model; format: in vivo, mice
Source text: To do this, mice were pair-fed with the amount of food consumed by avasimibe-administrated mice for 8 days.

3T3-L1 adipocytes = assay: Proteomic analysis of adipocytes by LC MS/MS; format: cell-based, Mus musculus; conditions: 10 μM
Method: 3T3-L1 preadipocytes were induced to differentiate into mature adipocytes with the same culture condition as described elsewhere. […] Avasimibe or DMSO was replaced freshly every 48 h. Each condition was cultured in triplicate. On day 6, adipocytes were washed with 1×PBS and scraped off the culture dishes. Adipocyte cell pellets were collected after centrifugation and subsequently digested with trypsin (Sigma-Aldrich, St. Louis MO, USA) at the Ratio of 1:50 (μg/μg) Trypsin to Protein. The tryptic peptides after trypsin digestion were separated on a nano LC system (1100 Series LC, Agilent Technologies, Santa Clara, CA) as described previously (D'Aquila, et al. 2015). Briefly, peptides were concentrated with Agilent 300SB-C18 enrichment column and separated with C18 reversed phase ZORBAX 300SB-C18 column. High resolution hybrid ion trap mass spectrometer LTQ-Orbitrap LX (Thermo Fisher Scientific, Waltham MA, USA) was employed to identify the peptides in the data-dependent positive acquisition mode. These experiments were done in Bindley Bioscience Center. We used the MaxQuant computational proteomics platform version 1.5.3.17 (Cox and Mann, 2008) to analyze the results from LC MS/MS analysis. The Mus musculus (24754 entries) sequence from UNIPROT retrieved on Sep. 1, 2015 and a common contaminants database were used as our reference databases. MaxQuant was set with parameters as follows: minimum peptides length was set to seven amino acids, and “Match between runs” interval was set to one minute; The FASTA databases were randomized and 1% of protein false discovery rate was allowed; With trypsin digestion, two missed cleavages were accepted; Three modifications per peptide were allowed, including one fixed modification as “Iodoethanol” and variable modifications as “Oxidation (M)” and “Acetyl (Protein N-term)”; Initial precursor was set to 0.07 and fragment mass tolerance set to 0.02 Da; Data were analyzed with “Label-free quantification” (LFQ) checked. The MaxQuant results were used in in-house script to remove all the common contaminant proteins and to calculate the average LFQ intensity values for the biological replicates and log transform [log2(x)]. The missing values were left blank unless indicated. A two tailed student t-test was performed on the LFQ intensity.

ACAT1 [9] = biological target: T1, ACAT1 (Homo sapiens, UniProt P35610); conditions: cited from earlier work
T1 sequence (P35610 1-550): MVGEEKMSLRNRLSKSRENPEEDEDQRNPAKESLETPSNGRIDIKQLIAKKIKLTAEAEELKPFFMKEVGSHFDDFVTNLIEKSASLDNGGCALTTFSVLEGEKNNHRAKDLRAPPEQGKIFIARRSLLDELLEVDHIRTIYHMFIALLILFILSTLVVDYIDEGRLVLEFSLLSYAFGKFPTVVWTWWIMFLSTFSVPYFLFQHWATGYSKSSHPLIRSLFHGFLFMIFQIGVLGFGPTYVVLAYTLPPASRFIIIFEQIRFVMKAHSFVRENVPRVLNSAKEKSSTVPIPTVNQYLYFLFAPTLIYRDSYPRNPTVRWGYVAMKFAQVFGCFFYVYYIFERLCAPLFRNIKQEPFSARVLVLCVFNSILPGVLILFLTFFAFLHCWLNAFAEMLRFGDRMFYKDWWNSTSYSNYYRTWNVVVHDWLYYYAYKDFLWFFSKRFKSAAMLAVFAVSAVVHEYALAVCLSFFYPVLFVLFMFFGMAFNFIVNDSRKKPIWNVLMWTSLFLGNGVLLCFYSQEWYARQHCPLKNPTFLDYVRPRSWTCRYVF

[10] = cited from earlier work
cytochrome P450 (CYP450) = conditions: Sahi, et al. 2004; cited from earlier work
ACAT1 [11] = assay: Lentivirus-mediated ACAT1 knockdown in adipocytes (Oil Red O, real-time PCR); format: cell-based, mouse
Method: The direct role of ACAT1 on synthesis of fatty acids and TGs in adipocytes by lentivirus-mediated ACAT1 knockdown using its specific shRNA was tested.

ACAT2 [12] = assay: ACAT2 knockdown in adipocytes (Oil Red O, real-time PCR); format: cell-based, mouse
[13] = daily i.p. 20 mg/kg, about 2-week

CCCCCCCCCCC(C)(C)C(=O)Nc1c(OC)cc(OC)cc1OC [CI-976, 2,2-Dimethyl-N-(2,4,6-trimethoxyphenyl) dodecanamide]
lipid accumulation (Oil Red O) ([1]; 0, 5, 15 and 20 μM for 6 days): decrease in lipid accumulation | anti-diabetes treatment [2]: highly effective | anti-obesity treatment in a mouse model of obesity [2]: highly effective | IC50 (ACAT2 [3]): < 1000 nM

CC(C)c1cc(C(C)C)c(CC(=O)NS(=O)(=O)Oc2c(C(C)C)cccc2C(C)C)c(C(C)C)c1 [avasimibe]
decrease of intracellular lipids (Oil Red O) ([1]; avasimibe 0, 1, 5, and 20 μM for 6 days, dose-dependent): up to 60% | lipid accumulation by CARS microscopy (mature adipocytes): inhibited lipid accumulation was confirmed | mRNA levels of genes involved in lipid synthesis (PPARγ, SREBP1c, MGAT1, DGAT2, FAS, SCD-1) ([4]; 20 μM for 6 days): marked decrease | mRNA levels of cholesterol uptake genes SR-BI and CD-36 ([4]; vs control adipocytes): marked decrease | level of 125 kDa inactive precursor form of SREBP1 (SREBP1): elevated levels | LD accumulation and glucose-d7 signal in LDs (de novo fatty acid synthesis) (adipocytes [5]): reduced level | CE accumulation in adipocytes (adipocytes [6]): complete inhibition | cholesterol level in adipocytes (adipocytes [6]): significantly reduced level | ACAT activity (fluorescence-labeled CE accumulation) (ACAT): inhibited the ACAT activity | HOMA-IR values ([2]; 2-week administration): improved | blood glucose ([2]; 2-week administration): marked reduction | glucose tolerance ([2]; 2-week administration): improved glucose tolerance | insulin levels ([2]; 2-week administration): marked reduction | decrease in food intake ([2]; daily i.p. 20 mg/kg): approximately 50% | energy expenditure ([2]; daily i.p. 20 mg/kg): reduced energy expenditure | reduction or suppression in total body weight gain ([2]; daily i.p. 20 mg/kg body weight, about 2-week): about 25% | white adipose tissue (inguinal, epididymal, retroperitoneal) weight [2, 13]: significant loss | whole body fat mass [2, 13]: significant loss | circulating leptin level ([2]; mouse, in vivo): markedly suppressed | serum CE ([2]; mouse, in vivo): decrease | serum TG ([2]; mouse, in vivo): decrease | serum free cholesterol ([2]; mouse, in vivo): decrease | anti-diabetes treatment [2]: highly effective | anti-obesity treatment in a mouse model of obesity [2]: highly effective | respiratory exchange ratio ([2]; vs control mice): reduced respiratory exchange ratio | liver toxicity by alanine transaminase (ALT) assay [7]: no noticeable liver toxicity | blood glucose of pair-fed group relative to avasimibe-treated mice ([8]; 8 days): didn't reach to the level found from avasimibe-treated mice | fecal energy content ([8]; 8 days): little change | fecal excretion and fecal energy excretion ([8]; figure legend FIG. 23C, 23D): suppressed | Acyl-CoA dehydrogenase protein level reduction (3T3-L1 adipocytes): 56% | Acyl-CoA synthetase long-chain family member 1 protein level reduction (3T3-L1 adipocytes): 86% | FAS protein level (3T3-L1 adipocytes): only identified in the control group | acetyl-CoA acyltransferase 1 protein level reduction (3T3-L1 adipocytes): 61% | adiponectin protein level reduction (3T3-L1 adipocytes): 84% | carnitine O-acetyltransferase protein level (3T3-L1 adipocytes): only identified in the control group | cytochrome B5 Reductase 3 and superoxide dismutase 1 protein levels (3T3-L1 adipocytes): not altered significantly | cytochrome B5 Type A protein level reduction (3T3-L1 adipocytes): 67% | enoyl CoA hydratase short chain 1 protein level reduction (3T3-L1 adipocytes): 64% | fatty acid binding protein 4 protein level reduction (3T3-L1 adipocytes): 64% | hydroxyacyl-CoA dehydrogenase protein level reduction (3T3-L1 adipocytes): 64% | hydroxysteroid (17-13) dehydrogenase 4 protein level reduction (3T3-L1 adipocytes): 38% | sterol carrier protein 2 downregulation (3T3-L1 adipocytes): 36% | IC50 (ACAT1 [9]): 10000 nM | IC50 (ACAT2 [3]): 2500 nM | safety when administered to rats, dogs, and humans ([10]; in vivo): generally considered safe | hypercholesterolemia ([10]; oral): effectively lowered | effect on body weight, food intake and insulin resistance ([10]; orally administrated): no effect | inhibition of cytochrome P450 (CYP450) (cytochrome P450 (CYP450)): known to inhibit

ACAT1 shRNA: mouse ACAT1 shRNA sequence (SEQ ID NO:5), lentivirus-mediated ACAT1 knockdown (CCGGCCAACCAGAGACUAAACAUAUCUCGAGAUAUGUUUAGUCUCUGGUUGGUUUUUUG; listed as Mus musculus)
suppression of lipid accumulation vs control ShRNA adipocytes (Oil Red O) (ACAT1 [11]; ACAT1 knockdown): up to 40% | mRNA levels of genes involved in lipid synthesis (ACAT1 [11]; ACAT1 knockdown, real-time PCR): marked decrease | ACAT2 expression level (ACAT1 [11]; ACAT1 shRNA): no influence

ACAT2 shRNA: mouse ACAT2 shRNA sequence (SEQ ID NO:6), ACAT2 knockdown (CCGGUGCGGUGGUUCAUGAGUAUAUCUCGAGAUAUACUCAUGAACCACCGCAUUUUUUG; listed as Mus musculus)
mRNA levels of genes involved in TG synthesis (ACAT2 [12]): dramatic reduction | suppression of lipid accumulation vs control ShRNA adipocytes (Oil Red O) (ACAT2 [12]): up to 55%
